Experimental data from patent US20260250636A1, “A METHOD FOR PRODUCING A BIOENGINEERED MAMMAL INDUCED PLURIPOTENT STEM CELL-DERIVED CARDIAC ORGANOID” (INSTITUT NATIONAL DE LA SANTÉ ET DE LA RECHERCHE MÉDICALE, priority 2022, published 2026).

Legend:
Assay type in all cases: cell-based, human
c-met cardiac organoids [1] = test: Cobalt chloride-mimicked hypoxia, proBNP and caspase-3 immunostaining; conditions: 200 μM CoCl2 hypoxia 24 h, n=8, normalized by DAPI fluorescence intensity
Description: (§1) Cardiac organoids cultured on 24 or 96-well culture plates were washed with phosphate-buffered saline (PBS), fixed with 4% paraformaldehyde in PBS for 60 min, permeabilized with 0.2% Triton X-100 (Sigma) in PBS and blocked 10% serum. Primary antibodies were diluted in PBS 10% serum at the following concentrations: phospho-Met; 1:100 (Cell Signaling Technologies), phospho-STAT3; 1:200 (Cell Signaling Technologies), Sarcomeric Alpha Actinin; 1:200 (Abcam), MLC-2A; 1:100 (Synaptic Systems), MLC-2V; 1:100 (Synaptic Systems), Cardiac troponin T; 1:100 (Abcam), CD31; 1:100 (Abcam), Caspase-3; 1:100 (Cell Signaling Technologies), ProBNP; 1:100 (Abcam), and then washed three times in PBS. The samples were incubated with secondary antibodies in antibody dilution buffer, then washed in PBS. Nuclei were labeled with DAPI mounting medium. The negative control performed a secondary antibody only (data not shown). Visualization and capture were realized with a Leica confocal microscope and LAS AF software.
(§2) Cardiac organoids cultured for 3-4 months in 96 wells were transferred randomly to XFp mini plates (1-6 organoids/well, 300 to 1100 μm in diameter) (Seahorse, Agilent). The cardiac culture medium was treated with 200 μM CoCl2 (sigma) concentration for 24 hours. To evaluate the effects of HGF stimulation and c-met inhibition we have used respectively HGF at 50 ng/ml (R&D Systems) and SU11274 at 5 M (Sigma) under hypoxia.

[2] = tested on: control cardiac organoids; test: as above; conditions: 200 μM CoCl2 hypoxia 24 h, n=5, normalized by DAPI fluorescence intensity
Description: as §1, §2

[3] = tested on: control cardiac organoids; test: OCR/ECAR and energy phenotype (Seahorse XFp) under cobalt chloride-mimicked hypoxia; conditions: after CoCl2 hypoxia 24 h; control group as compared to c-met group
Description: as §2
OCR, ECAR and energy phenotype test were all measured using a Seahorse XFp analyzer (Seahorse, Agilent). On the day of testing, cells were incubated in XF assay medium for 1 hr at 37° C. in non-CO2 incubator before measurement. Cell energy phenotype kit was used with port A containing the FCCP/oligomycin stressor mix at 2.0/1.0 μM (final well concentration). OCR and ECAR were normalized to the cell numbers of each wells. Cells were stained with DAPI and calculated from Leica confocal microscope images.

c-met cardiac organoids [4] = test: as above
Description: Cardiac organoids cultured for 3-4 months in 96 wells were transferred randomly to XFp mini plates (1-6 organoids/well, 300 to 1100 μm in diameter) (Seahorse, Agilent). The cardiac culture medium was treated with 200 μM CoCl2 (sigma) concentration for 24 hours. To evaluate the effects of HGF stimulation and c-met inhibition we have used respectively HGF at 50 ng/ml (R&D Systems) and SU11274 at […] (Sigma) under hypoxia. OCR, ECAR and energy phenotype test were all measured using a Seahorse XFp analyzer (Seahorse, Agilent). On the day of testing, cells were incubated in XF assay medium for 1 hr at 37° C. in non-CO2 incubator before measurement. Cell energy phenotype kit was used with port A containing the FCCP/oligomycin stressor mix at 2.0/1.0 μM (final well concentration). OCR and ECAR were normalized to the cell numbers of each wells. Cells were stained with DAPI and calculated from Leica confocal microscope images.

| SMILES | caspase-3+ cells intensity (c-met cardiac organoids [1]) | proBNP+ cells intensity (c-met cardiac organoids [1]) | caspase-3+ cells intensity [2] | proBNP+ cells intensity [2] | glycolysis activity (ECAR) [3] | energy phenotype (OCR versus ECAR) (c-met cardiac organoids [4]; after CoCl2 hypoxia 24 h, c-met organoids versus control) | glycolysis activity at the baseline (ECAR) (c-met cardiac organoids [4]; c-met organoids, CoCl2 + SU11274 24 h, compared with HGF-treated (50 ng/ml) control organoids) |
| --- | --- | --- | --- | --- | --- | --- | --- |
| [Cl][Co][Cl] [cobalt, cobalt chloride] | 0.34±0.16 | 0.73±1.4 | 0.61±0.11 | 0.78±0.16 | decreased | more energetic than control | – |
| Cc1[nH]c(/C=C2\C(=O)Nc3ccc(S(=O)(=O)N(C)c4cccc(Cl)c4)cc32)c(C)c1C(=O)N1CCN(C)CC1 [SU11274] | – | – | – | – | – | – | significantly decreased |
